From ChEMBL document CHEMBL1201862, “PubChem BioAssay data set” (2004)
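A five-concentration, 48-hour dose response in 96-well plates underlies each endpoint, interpolated linearly between surrounding concentrations. Here, GI50 denotes the concentration required for 50% inhibition of growth.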 Calls of active or inactive are those of the source. Rule as the data show it: active = GI50 up to about 1.1 µM and inactive = higher.

Legend:
Assay in all cases: DTP human tumour cell line panel, 48 h
[1] = test system: LOX IMVI
[2] = test system: OVCAR-8
[3] = test system: NCI-H522
[4] = test system: SNB-75
[5] = test system: CCRF-CEM
[6] = test system: SK-MEL-5
[7] = test system: BT-549
[8] = test system: SW-620
[9] = test system: TK-10
[10] = test system: SK-MEL-2
[11] = test system: Hs-578T
[12] = test system: A549
[13] = test system: NCI/ADR-RES
[14] = test system: SNB-19
[15] = test system: SF-268
[16] = test system: HT-29
[17] = test system: K562
[18] = test system: Malme-3M
[19] = test system: T47D
[20] = test system: ACHN
[21] = test system: A498
[22] = test system: M14
[23] = test system: COLO 205
[24] = test system: UO-31
[25] = test system: NCI-H226
[26] = test system: MDA-MB-231
[27] = test system: 786-0
[28] = test system: HL-60
[29] = test system: U-251
[30] = test system: HOP-62
[31] = test system: MCF7
[32] = test system: SF-539
[33] = test system: KM12
[34] = test system: SR
[35] = test system: SN12C
[36] = test system: DU-145
[37] = test system: NCI-H23
[38] = test system: NCI-H460
[39] = test system: MDA-MB-435
[40] = test system: UACC-62
[41] = test system: OVCAR-4
[42] = test system: IGROV-1
[43] = test system: SK-OV-3
[44] = test system: HCT-15
[45] = test system: HCC 2998
[46] = test system: CAKI-1
[47] = test system: MOLT-4
[48] = test system: EKVX
[49] = test system: UACC-257
[50] = test system: OVCAR-5
[51] = test system: RXF 393
[52] = test system: HCT-116
[53] = test system: SF-295
[54] = test system: PC-3
[55] = test system: HOP-92
[56] = test system: RPMI-8226
[57] = test system: OVCAR-3
[58] = test system: MDA-N
[59] = test system: SK-MEL-28

With `N#Cc1c(C#N)c(-c2ccco2)n(/N=C/c2ccco2)c1N` the GI50 [1] was 83.4 µM (inactive), the GI50 [2] was 23.3 µM (inactive) and the GI50 [3] was > 100 µM (inactive). The GI50 [4] was 7.29 µM (inactive), the GI50 [5] was > 100 µM (inactive) and the GI50 [6] was > 100 µM (inactive). For the same compound, the GI50 [7] was 22.8 µM (inactive), the GI50 [8] was > 100 µM (inactive) and the GI50 [9] was 96.6 µM (inactive). The GI50 [10] was > 100 µM (inactive), the GI50 [11] was 17.4 µM (inactive) and the GI50 [12] was 47.5 µM (inactive). The GI50 [13] was 65.9 µM (inactive), the GI50 [14] was 24.9 µM (inactive) and the GI50 [15] was 28.2 µM (inactive). The GI50 [16] was > 100 µM (inactive), the GI50 [17] was > 100 µM (inactive) and the GI50 [18] was > 100 µM (inactive). The GI50 [19] was 2.93 µM (inactive), the GI50 [20] was > 100 µM (inactive) and the GI50 [21] was 27.6 µM (inactive). The GI50 [22] was > 100 µM (inactive), the GI50 [23] was > 100 µM (inactive) and the GI50 [24] was > 100 µM (inactive). The GI50 [25] was 18.8 µM (inactive), the GI50 [26] was 11.3 µM (inactive) and the GI50 [27] was 33.2 µM (inactive). The GI50 [28] was > 100 µM (inactive), the GI50 [29] was 24.6 µM (inactive) and the GI50 [30] was 28.1 µM (inactive). For the same compound, the GI50 [31] was 6.5 µM (inactive), the GI50 [32] was 23.9 µM (inactive) and the GI50 [33] was > 100 µM (inactive). For the same compound, the GI50 [34] was 26.1 µM (inactive), the GI50 [35] was 32.6 µM (inactive) and the GI50 [36] was 39 µM (inactive). The GI50 [37] was > 100 µM (inactive), the GI50 [38] was > 100 µM (inactive) and the GI50 [39] was > 100 µM (inactive). For the same compound, the GI50 [40] was > 100 µM (inactive), the GI50 [41] was 76.9 µM (inactive) and the GI50 [42] was 35.6 µM (inactive). The GI50 [43] was 43.3 µM (inactive), the GI50 [44] was 29.6 µM and the GI50 [45] was > 100 µM (inactive). For the same compound, the GI50 [46] was > 100 µM (inactive), the GI50 [47] was 94.6 µM (inactive) and the GI50 [48] was 20.1 µM (inactive). For the same compound, the GI50 [49] was > 100 µM (inactive), the GI50 [50] was > 100 µM (inactive) and the GI50 [51] was 19.9 µM (inactive). For the same compound, the GI50 [52] was 52.8 µM (inactive), the GI50 [53] was 21.9 µM (inactive) and the GI50 [54] was > 100 µM (inactive). For the same compound, the GI50 [55] was 11.2 µM (inactive), the GI50 [56] was > 100 µM (inactive) and the GI50 [57] was > 100 µM (inactive).
For `CC(C)n1c(=O)n(-c2ccccc2)n(C(C)(C)C)c1=O`, the GI50 [1] was > 100 µM (inactive), the GI50 [2] was > 100 µM (inactive) and the GI50 [4] was > 100 µM (inactive). For the same compound, the GI50 [5] was > 100 µM (inactive), the GI50 [6] was > 100 µM (inactive) and the GI50 [7] was > 100 µM (inactive). For the same compound, the GI50 [8] was > 100 µM (inactive), the GI50 [9] was > 100 µM (inactive) and the GI50 [10] was > 100 µM (inactive). The GI50 [58] was > 100 µM (inactive), the GI50 [11] was > 100 µM (inactive) and the GI50 [12] was > 100 µM (inactive). For the same compound, the GI50 [13] was > 100 µM (inactive), the GI50 [14] was > 100 µM (inactive) and the GI50 [16] was > 100 µM (inactive). For the same compound, the GI50 [17] was > 100 µM (inactive), the GI50 [18] was > 100 µM (inactive) and the GI50 [20] was > 100 µM (inactive). The GI50 [21] was > 100 µM (inactive), the GI50 [22] was > 100 µM (inactive) and the GI50 [23] was > 100 µM (inactive). For the same compound, the GI50 [24] was > 100 µM (inactive), the GI50 [25] was > 100 µM (inactive) and the GI50 [26] was > 100 µM (inactive). The GI50 [27] was > 100 µM (inactive), the GI50 [28] was 47.4 µM (inactive) and the GI50 [29] was > 100 µM (inactive). For the same compound, the GI50 [30] was > 100 µM (inactive), the GI50 [31] was > 100 µM (inactive) and the GI50 [32] was > 100 µM (inactive). For the same compound, the GI50 [33] was > 100 µM (inactive), the GI50 [34] was 58.5 µM (inactive) and the GI50 [35] was > 100 µM (inactive). For the same compound, the GI50 [37] was 83.2 µM (inactive), the GI50 [38] was > 100 µM (inactive) and the GI50 [40] was > 100 µM (inactive). The GI50 [41] was > 100 µM (inactive), the GI50 [42] was > 100 µM (inactive) and the GI50 [43] was > 100 µM (inactive). For the same compound, the GI50 [44] was > 100 µM, the GI50 [45] was > 100 µM (inactive) and the GI50 [46] was > 100 µM (inactive). The GI50 [59] was > 100 µM (inactive), the GI50 [47] was > 100 µM (inactive) and the GI50 [48] was > 100 µM (inactive). For the same compound, the GI50 [49] was > 100 µM (inactive), the GI50 [50] was > 100 µM (inactive) and the GI50 [51] was > 100 µM (inactive). For the same compound, the GI50 [52] was > 100 µM (inactive), the GI50 [53] was > 100 µM (inactive) and the GI50 [54] was > 100 µM (inactive). For the same compound, the GI50 [55] was > 100 µM (inactive) and the GI50 [57] was > 100 µM (inactive).
`CCOC(=O)/C1=C(\C)N(c2ccc(C)cc2)C(=O)c2ccccc2C(=O)c2c(O)ccc(O)c21` was tested, and the GI50 [1] was 16.7 µM (inactive), the GI50 [2] was 18.9 µM (inactive) and the GI50 [3] was 18.7 µM (inactive). The GI50 [4] was 0.634 µM (active), the GI50 [5] was 20.6 µM (inactive) and the GI50 [6] was 16.3 µM (inactive). The GI50 [7] was 27.7 µM (inactive), the GI50 [8] was 27.6 µM (inactive) and the GI50 [9] was 26.2 µM (inactive). For the same compound, the GI50 [10] was 28.8 µM (inactive), the GI50 [11] was 29.2 µM (inactive) and the GI50 [12] was 26.6 µM (inactive). The GI50 [13] was 14.9 µM (inactive), the GI50 [14] was 47.5 µM (inactive) and the GI50 [15] was 27.7 µM (inactive). The GI50 [16] was 19.5 µM (inactive), the GI50 [17] was 20.6 µM (inactive) and the GI50 [18] was 18.1 µM (inactive). For the same compound, the GI50 [19] was 13.4 µM (inactive), the GI50 [20] was 14.2 µM (inactive) and the GI50 [22] was 19.1 µM (inactive). The GI50 [23] was 20.1 µM (inactive), the GI50 [24] was 27.7 µM (inactive) and the GI50 [25] was 42.4 µM (inactive). For the same compound, the GI50 [26] was 14.1 µM (inactive), the GI50 [27] was 18.2 µM (inactive) and the GI50 [28] was 19.1 µM (inactive). For the same compound, the GI50 [29] was 22.4 µM (inactive), the GI50 [30] was 20.7 µM (inactive) and the GI50 [31] was 15.2 µM (inactive). For the same compound, the GI50 [32] was 26.5 µM (inactive), the GI50 [33] was 23 µM (inactive) and the GI50 [35] was 25.9 µM (inactive). The GI50 [36] was 32.2 µM (inactive), the GI50 [37] was 24.7 µM (inactive) and the GI50 [38] was 23.2 µM (inactive). For the same compound, the GI50 [39] was 18.5 µM (inactive), the GI50 [40] was 28 µM (inactive) and the GI50 [41] was 3.66 µM (inactive). For the same compound, the GI50 [42] was 18.9 µM (inactive), the GI50 [43] was 35.9 µM (inactive) and the GI50 [44] was 14.4 µM. For the same compound, the GI50 [45] was 16.5 µM (inactive), the GI50 [46] was 20 µM (inactive) and the GI50 [47] was 14.5 µM (inactive). For the same compound, the GI50 [48] was 24.8 µM (inactive), the GI50 [49] was 15.8 µM (inactive) and the GI50 [50] was 30.2 µM (inactive). The GI50 [51] was 23.2 µM (inactive), the GI50 [52] was 19.5 µM (inactive) and the GI50 [53] was 16.9 µM (inactive). For the same compound, the GI50 [54] was 24.7 µM (inactive), the GI50 [55] was 22.7 µM (inactive) and the GI50 [56] was 11.7 µM (inactive). For the same compound, the GI50 [57] was 17.8 µM (inactive).
